According to patent publication US7732412B2, “Methods of treatment using novel LHRH antagonists having improved solubility properties” (Zentaris GmbH, priority 1999, dated 2010):
Numbered stars: 1 amine (or outer) side, 2 acyl side, 3 side chain; on linkers, the order of the positions; unused ones are H or OH. Square brackets hold non-standard residues; d marks the D form. Side chains are listed from the residue outwards. Peptide text beside a SMILES is read from it. * marks the point of attachment. Triazole(1,2,4-3-CO,5-NH) = O=C(c1n[nH]c(N[*:1])n1)[*:2]; Propanoyl(3-(4-F-phenyl)) = O=C(CCc1ccc(F)cc1)*; NH(4-amidinophenyl) = N=C(N)c1ccc(N*)cc1; dPhe(4-Cl) = N[C@H](Cc1ccc(Cl)cc1)C(=O)O; d1Nal = N[C@H](Cc1cccc2ccccc12)C(=O)O; d2Nal = N[C@H](Cc1ccc2ccccc2c1)C(=O)O; d(hCit) = NC(=O)NCCCC[C@@H](N)C(=O)O; Lys(iPr) = CC(C)NCCCC[C@H](N)C(=O)O; NMeY = CN[C@@H](Cc1ccc(O)cc1)C(=O)O; d3Pal = N[C@H](Cc1cccnc1)C(=O)O; Suc = O=C(CCC(=O)[*:2])[*:1]; Nle = CCCC[C@H](N)C(=O)O; Sar = CNCC(=O)O

What was measured:
[1] = test system: patients who suffer from prostate carcinoma; experiment: second clinical trial in prostate carcinoma, 13 patients, testosterone; type: in vivo, human
Method: (§1) The following data are derived from two clinical studies comprising 14 and 13 patients, respectively, who suffer from prostate carcinoma and who were treated with the compound of the invention having the formula: Ac-D-Nal(2)^1-D-Cpa^2-D-Pal(3)^3-Ser^4-N-Me-Tyr^5-D-Hci^6-Nle^7-Arg^8-Pro^9-D-Ala^10-NH2 (Ozarelix)
In the second clinical trial patients were given a single im. injection of 130 mg Ozarelix on day 1. Patients were re-treated after a waiting period of 4 weeks, and this 4 week period is considered as a treatment “Cycle”. Accordingly, dosage of 130 mg of Ozarelix was again provided to the patients in the first four week cycle of treatment (Cycle 1).
Seven out of these 13 patients were subsequently administered 130 mg Ozarelix per i.m. injection on day 29, whereas the other six patients received 100 mg Ozarelix on day 29 (Cycle 2). This schedule was repeated on day 57 accordingly (Cycle 3).
As for the administration days, testosterone levels were always determined before application of Ozarelix to the patients.

human LHRH receptor = biological target: T1, human LHRH receptor (Homo sapiens, UniProt P30968); experiment: functional assay for antagonistic activity, fos-Luc luciferase reporter gene, stimulation with 1 nM [D-Trp6] LHRH; type: cell-based; parameters: expressed in transfected cells; conditions: cells stimulated with 1 nM [D-Trp6] LHRH for 6 h; bracket = number of independent experiments
T1 sequence (P30968 1-328): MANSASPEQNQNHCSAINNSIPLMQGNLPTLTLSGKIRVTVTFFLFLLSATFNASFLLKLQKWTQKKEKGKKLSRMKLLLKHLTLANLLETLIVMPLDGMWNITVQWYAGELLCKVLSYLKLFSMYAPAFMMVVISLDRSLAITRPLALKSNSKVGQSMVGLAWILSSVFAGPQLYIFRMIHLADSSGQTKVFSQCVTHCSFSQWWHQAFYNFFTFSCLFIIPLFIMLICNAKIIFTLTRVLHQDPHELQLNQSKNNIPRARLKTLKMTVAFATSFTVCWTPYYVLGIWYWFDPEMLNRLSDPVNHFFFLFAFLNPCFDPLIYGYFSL
Method: The assay for the functional characterization of antagonistic analogs of LH-RH was carried out, with some modifications, as described in Beckers et al., “Characterization of gonadotropin-releasing hormone analogs based on a sensitive cellular luciferase reporter gene assay” (1997) Analyt. Biochem. 251, 17-23. The assay uses a reporter gene made by fusing the c-fos immediate-early gene promoter to a DNA sequence encoding luciferase (Luc). A recombinant cell line that expresses the human LH-RH. receptor is stably transfected with the fos-Luc reporter gene. Transcription of the fos-Luc fusion gene and synthesis of the Luc protein is induced in the cells in a dose-dependent manner by LH-RH and other LH-RH agonists that bind and signal through the human LH-RH receptor. Peptide LH-RH antagonists such as the compounds of the invention bind to cellular LH-RH receptors and inhibit this stimulation. The antagonistic potency (IC50) of peptide LH-RH antagonists as determined by the assay generally correlates well with the binding affinity (KD) of the LH-RH antagonists for LH-RH receptor as determined from ligand binding experiments.
Cells containing the fos-Luc reporter gene that express the human LH-RH receptor were cultured for 24 h in microtitre plates using DMEM with additives and 1% (v:v) FCS (10,000 cells per well). The cells were then stimulated with 1 nM [D-Trp^6] LHRH for 6 h. Peptide LH-RH antagonist compounds according to the invention were added before the stimulation, and the cells were lysed at the end for quantification of the cellular Luc activity. The calculation of the IC50 values from dose-effect curves was carried out by non-linear regression analysis using the Hill model (Programme EDX 2.0 from C. Grunwald, Arzneimittelwerk Dresden).
The quantification of the Luc activity was carried out in duplicate essentially as described (Promega Technical Bulletins #101/161) using the respective luciferase assay system (Promega E4030). Owing to addition of coenzyme A (CoA), an oxidation of luciferyl-CoA takes place with advantageous kinetics. After the removal of the culture medium from the microtitre plate, the cells were lysed by addition of 100 μl of lysis buffer (25 mM tris-phosphate pH 7.8, 2 mM dithiothreitol, 2 mM 1,2-diaminocyclohexane-N,N,N′,N′-tetraacetic acid (CDTA), 10% (v:v) glycerol, 1% (v:v) Triton X-100). After incubation at room temperature for 15 min, 10 μl of cell lysate were transferred into a white microtitre plate suitable for luminometric detection (Dynatech). The enzymatic reaction was initiated by addition of 50 μl of assay buffer (20 mM tricine pH 7.8, 1.07 mM (MgCO3)4Mg(OH)2, 2.67 mM MgSO4, 0.1 mM ethylene-diaminetetraacetic acid (EDTA), 33.3 mM dithiothreitol, 270 μM coenzyme A, 470 μM glow-worm (Photinus pyralis) luciferin, 530 μM rATPNa2). After one minute, the luminescence was determined for a total time of one second with a signal half-life of five minutes using the EG&G Berthold MicroLumat LB 96 P.

[2] = test system: patients who suffer from prostate carcinoma; experiment: first clinical trial in prostate carcinoma, 14 patients, testosterone and PSA; type: in vivo, human
Method: as §1
In the first clinical trial, patients were given i.m. injections of 65 mg Ozarelix on day 1 followed by another 65 mg i.m. injection on day 2. Patients were re-treated after a waiting period of 4 weeks. This 4 week period of treatment is referred to as a treatment “cycle”. Accordingly, dosage of 130 mg of Ozarelix was provided to the patients in the first four week cycle of treatment (Cycle 1).
Six out of these 14 patients were subsequently administered 65 mg Ozarelix per i.m. injection on day 29 and day 30 each, whereas the other eight patients only received 65 mg Ozarelix on day 29 (Cycle 2). This schedule was repeated on day 57/58 accordingly (Cycle 3).
As for the administration days, testosterone levels were always determined before application of ozarelix to the patients. In addition, mean change of Prostate Specific Antigen (PSA) levels were monitored 4-weekly over a period of 12 weeks. The percent change of PSA shown is the mean value for all treated patients and refers to the normalized individual baseline PSA levels before first Ozarelix administration.

SMILES: CCCC[C@H](NC(=O)[C@@H](CCCCNC(N)=O)NC(=O)[C@H](Cc1ccc(O)cc1)N(C)C(=O)[C@H](CO)NC(=O)[C@@H](Cc1cccnc1)NC(=O)[C@@H](Cc1ccc(Cl)cc1)NC(=O)[C@@H](Cc1ccc2ccccc2c1)NC(C)=O)C(=O)N[C@@H](CCCNC(=N)N)C(=O)N1CCC[C@H]1C(=O)N[C@H](C)C(N)=O [Example 1, Ac-D-Nal(2)^1-D-Cpa^2-D-Pal(3)^3-Ser^4-N-Me-Tyr^5-D-Hci^6-Nle^7-Arg^8-Pro^9-D-Ala^10-NH2] (Ac-[d2Nal][dPhe(4-Cl)][d3Pal]S[NMeY][d(hCit)][Nle]RP[dA]-NH2)
- Testosterone (mean) ([1]; Day 2, single 130 mg i.m. on day 1, re-treated day 29 and 57 (130 or 100 mg), pre-dose day 1 3.9 ng/mL): 0.4 ng/mL
- Testosterone (mean) ([1]; Day 3, second trial, 130 mg i.m. on day 1): 0.3 ng/mL
- Testosterone (mean) ([1]; Day 8, second trial): 0.1 ng/mL
- Testosterone (mean) ([1]; Day 15, second trial): 0.1 ng/mL
- Testosterone (mean) ([1]; Day 22, second trial): 0.1 ng/mL
- Testosterone (mean) ([1]; Day 29, before application, second trial): 0.2 ng/mL
- Testosterone (mean) ([1]; Day 36, second trial): 0.1 ng/mL
- Testosterone (mean) ([1]; Day 43, second trial): 0.1 ng/mL
- Testosterone (mean) ([1]; Day 50, second trial): 0.1 ng/mL
- Testosterone (mean) ([1]; Day 57, before application, second trial): 0.2 ng/mL
- Testosterone (mean) ([1]; Day 64, second trial): 0.1 ng/mL
- Testosterone (mean) ([1]; Day 71, second trial): 0.1 ng/mL
- Testosterone (mean) ([1]; Day 78, second trial): 0.1 ng/mL
- Testosterone (mean) ([1]; Day 85, second trial): 0.3 ng/mL
- testosterone values of all patients ([1]; afterwards (after day 3), second trial): < 0.5 ng/mL
- treated patients hormonally castrated (testosterone <0.5 ng/mL) ([1]; day 2 (24 hours post-dose), second trial): 69%
- treated patients hormonally castrated (testosterone <0.5 ng/mL) ([1]; day 3 (48 hours post-dose), second trial): 100%
- IC50 (human LHRH receptor): 0.242 nM
- PSA levels over the monitoring period ([2]; 12 weeks, first trial): significantly reduced
- Testosterone (mean) ([2]; Day 2, 65 mg i.m. on day 1 and 2, re-treated day 29(/30) and 57(/58), pre-dose day 1 4.4 ng/mL): 0.6 ng/mL
- Testosterone (mean) ([2]; Day 3, first trial, 65 mg i.m. on day 1 and 2): 0.3 ng/mL
- Testosterone (mean) ([2]; Day 8, first trial): 0.2 ng/mL
- Testosterone (mean) ([2]; Day 15, first trial): 0.1 ng/mL
- Testosterone (mean) ([2]; Day 22, first trial): 0.1 ng/mL
- Testosterone (mean) ([2]; Day 29, before application, first trial): 0.2 ng/mL
- PSA [% change] (mean, versus individual baseline) ([2]; Day 29, first trial): −77 % change
- Testosterone (mean) ([2]; Day 36, first trial): 0.1 ng/mL
- Testosterone (mean) ([2]; Day 43, first trial): 0.1 ng/mL
- Testosterone (mean) ([2]; Day 50, first trial): 0.1 ng/mL
- Testosterone (mean) ([2]; Day 57, before application, first trial): 0.1 ng/mL
- PSA [% change] (mean, versus individual baseline) ([2]; Day 57, first trial): −88 % change
- Testosterone (mean) ([2]; Day 64, first trial): 0.1 ng/mL
- Testosterone (mean) ([2]; Day 71, first trial): 0.1 ng/mL
- Testosterone (mean) ([2]; Day 78, first trial): 0.1 ng/mL
- PSA [% change] (mean, versus individual baseline) ([2]; Day 85, first trial): −89 % change
- Testosterone (mean) ([2]; Day 85, first trial): 0.3 ng/mL
- testosterone values of all patients ([2]; afterwards (after day 3), first trial): < 0.5 ng/mL
- treated patients hormonally castrated (testosterone <0.5 ng/mL) ([2]; day 2 (24 hours post-dose), first trial): 57%
- treated patients hormonally castrated (testosterone <0.5 ng/mL) ([2]; day 3 (48 hours post-dose), first trial): 79%

SMILES: CC(C)C[C@H](NC(=O)[C@@H](CCCCNC(=O)c1nc(N)n[nH]1)NC(=O)[C@H](Cc1ccc(O)cc1)N(C)C(=O)[C@H](CO)NC(=O)[C@@H](Cc1cccc2ccccc12)NC(=O)CCc1ccc(F)cc1)C(=O)N[C@@H](CCCNC(=N)N)C(=O)N1CCC[C@H]1C(=O)N[C@H](C)C(N)=O [Example 6, 3-(4-Fluorophenyl)propionyl-D-Nal(1)^1-Ser^4-N-Me-Tyr^5-D-Lys (Atz)^6-Leu^7-Arg^8-Pro^9-D-Ala^10-NH2] ({Propanoyl(3-(4-F-phenyl))}-[d1Nal]S[NMeY][dK](Triazole(1,2,4-3-CO,5-NH))LRP[dA]-NH2)
- IC50 (human LHRH receptor): 0.221 nM

SMILES: CCCC[C@H](NC(=O)[C@@H](CCCCNC(=O)CCC(=O)Nc1ccc(C(=N)N)cc1)NC(=O)[C@H](Cc1ccc(O)cc1)N(C)C(=O)[C@H](CO)NC(=O)[C@@H](Cc1cccnc1)NC(=O)[C@@H](Cc1ccc(Cl)cc1)NC(=O)[C@@H](Cc1ccc2ccccc2c1)NC(C)=O)C(=O)N[C@@H](CCCNC(=N)N)C(=O)N1CCC[C@H]1C(=O)N(C)CC(N)=O [Example 7, Ac-D-Nal(2)^1-D-Cpa^2-D-Pal(3)^3-Ser^4-N-Me-Tyr^5-D-Lys(B)^6-Nle^7-Arg^8-Pro^9-Sar^10-NH2] (Ac-[d2Nal][dPhe(4-Cl)][d3Pal]S[NMeY][dK]([Suc-NH(4-amidinophenyl)])[Nle]RP[Sar]-NH2)
- IC50 (human LHRH receptor): 1.3 nM

SMILES: CCCC[C@H](NC(=O)[C@@H](CCCCNC(=O)CCC(=O)Nc1ccc(C(=N)N)cc1)NC(=O)[C@H](Cc1ccc(O)cc1)N(C)C(=O)[C@H](CO)NC(=O)[C@@H](Cc1cccnc1)NC(=O)[C@@H](Cc1ccc(Cl)cc1)NC(=O)[C@@H](Cc1ccc2ccccc2c1)NC(C)=O)C(=O)N[C@@H](CCCNC(=N)N)C(=O)N1CCC[C@H]1C(=O)N[C@H](C)C(N)=O [Example 8, Ac-D-Nal(2)^1-D-Cpa^2-D-Pal(3)^3-Ser^4-N-Me-Tyr^5-D-Lys(B)^6-Nle^7-Arg^8-Pro^9-D-Ala^10-NH2] (Ac-[d2Nal][dPhe(4-Cl)][d3Pal]S[NMeY][dK]([Suc-NH(4-amidinophenyl)])[Nle]RP[dA]-NH2)
- IC50 (human LHRH receptor): 1.4 nM

SMILES: CCCC[C@H](NC(=O)[C@@H](CCCCNC(=O)CCC(=O)Nc1ccc(C(=N)N)cc1)NC(=O)[C@H](Cc1ccc(O)cc1)N(C)C(=O)[C@H](CO)NC(=O)[C@@H](Cc1cccnc1)NC(=O)[C@@H](Cc1ccc(Cl)cc1)NC(=O)[C@@H](Cc1ccc2ccccc2c1)NC(C)=O)C(=O)N[C@@H](CCCCNC(C)C)C(=O)N1CCC[C@H]1C(=O)N(C)CC(N)=O [Example 9, Ac-D-Nal(2)^1-D-Cpa^2-D-Pal(3)^3-Ser^4-N-Me-Tyr^5-D-Lys(B)^6-Nle^7-Lys(iPr)^8-Pro^9-Sar^10-NH2] (Ac-[d2Nal][dPhe(4-Cl)][d3Pal]S[NMeY][dK]([Suc-NH(4-amidinophenyl)])[Nle][Lys(iPr)]P[Sar]-NH2)
- IC50 (human LHRH receptor): 4.7 nM
